Legend:
Format in all cases: functional
[1] = organism: Cavia porcellus; experiment: Bronchodilator activity against serotonin-induced spasm in guinea pig; conditions: read-out: ID50 (the source's name)
[2] = organism: Cavia porcellus; experiment: Bronchodilator activity against histamine-induced spasm in guinea pig; conditions: read-out: ID50 (the source's name)
[3] = organism: Cavia porcellus; experiment: Bronchodilator activity against acetylcholine-induced spasm in guinea pig; conditions: read-out: ID50 (the source's name)
[4] = Relative potency is ratio of IC50 of theophylline / IC50 was determined
[5] = organism: Homo sapiens; experiment: Compound was tested for Bronchodilator activity against isolated human bronchus contracted by carbachol
[6] = Homo sapiens, Bronchus, read-out: IC50

SMILES | ED50 [1] [µmol/kg] | ED50 [2] [µmol/kg] | ED50 [3] [µmol/kg] | Relative potency [4] | IC50 [5] [uM l-1] | IC50 [5, 6] [µM]
Cc1ccc2nc3n(c(=O)c2c1)CCC3 | 11.3 | 29.8 | 29 | – | – | –
O=c1c2c(nc3n1CCCCC3)CCCC2 | 3 | 3 | – | – | – | –
CCc1c(C)nc2ccccn2c1=O.Cl | 12 | 8.6 | 29.4 | 1.19 | 127 | –
Cl.O=c1c2c(nc3ccccn13)CCCC2 | 16.7 | 6.1 | 18.2 | 1.18 | 127 | –
O=c1c2cc3c(cc2nc2n1CCCCC2)OCO3 | 13.1 | > 32 | 22.7 | – | – | –
S=c1c2c(nc3n1CCCCC3)CCCC2 | > 320 | > 320 | > 320 | – | – | –
CC1CCc2nc3c(c(=O)n2C1)CCC3 (configuration not stated) | 39.6 | 7.2 | 17.6 | – | – | –
O=c1c2c(nc3n1CCC3)CCCC2 | 29.8 | 24.1 | 51.1 | – | – | –
Cc1cccc2nc3c(c(=O)n12)CCC3 | 4.3 | 7.2 | 29.3 | – | – | –
O=C(O)c1ccc2c(=O)n3c(nc2c1)CCC3 | > 100 | > 100 | > 100 | – | – | –
O=c1c2c(nc3n1CCC3)CCCCC2 | 33 | 27.6 | 38.5 | – | – | –
CCc1c(C)nc2c(C)cccn2c1=O | 12.3 | 5.1 | 36.4 | – | – | –
CCOC(=O)c1ccc2c(=O)n3c(nc2c1)CCC3 | > 32 | 14.4 | > 32 | – | – | –
O=C(O)c1ccc2nc3n(c(=O)c2c1)CCCC3 | > 100 | > 100 | > 100 | – | – | –
O=c1c2ccccc2nc2n1CCC2 | 21.2 | 16.9 | 37.7 | – | – | –
CCc1c(C)nc2ccc(C)cn2c1=O | 16.6 | 12.4 | 24 | – | – | –
O=c1nc2n(c3c1CCCC3)CCC2 | 107 | > 100 | > 100 | – | – | –
Cc1ccc2nc3c(c(=O)n2c1)CCCC3 | 20.4 | 15.6 | 32 | – | – | –
O=c1nc2n(c3c1CCC3)CCC2 | > 100 | > 100 | > 100 | – | – | –
CC1CCc2nc3c(c(=O)n21)CCCC3 (configuration not stated) | 46.8 | 19.7 | 74.6 | – | – | –
O=c1c2c(nc3n1CCCC3)CCC2 | 24.1 | 25.7 | 23.7 | – | – | –

SMILES | ED50 [1] [µmol/kg] | ED50 [2] [µmol/kg] | ED50 [3] [µmol/kg] | Relative potency [4] | IC50 [5] [uM l-1] | IC50 [5, 6] [µM]
CCOC(=O)c1c[n+](C)c2n(c1=O)C(C)CCC2 (configuration not stated) [RIMAZOLIUM METILSULFATE] | 14 | 8 | 31 | – | – | –
COc1ccccc1.Cn1c(=O)c2nc[nH]c2n(C)c1=O | 10 | 10 | 22 | 1 | 151 | –
O=c1c2c(nc3ccccn13)CCCCCC2 | 49 | 32.7 | 53.3 | – | – | –
Cc1ccc2c(=O)n3c(nc2c1)CCCCC3 | 39.4 | 25.6 | 76 | – | – | –
Cc1cccn2c(=O)c3c(nc12)CCCCCC3 | 14.3 | 23.8 | 42.6 | – | – | –
Cc1ccn2c(=O)c3c(nc2c1)CCC3 | 22.6 | 15.7 | 29.6 | – | – | –
O=c1c2c(nc3n1CCC3)CCCCCC2 | 57.1 | 164 | 100 | – | – | –
CC1CCCc2nc3c(c(=O)n21)CCCC3 (configuration not stated) | 14 | 24.7 | 20.3 | – | – | –
CC1CCc2nc3ccccc3c(=O)n21 (configuration not stated) | 12.2 | 10.4 | 48.2 | – | – | –
O=c1c2c(nc3n1CCCCC3)CCCCCC2 | > 100 | 33 | 2.26 | – | – | –
CC1CCc2nc3c(c(=O)n2C1)CCCC3 (configuration not stated) | 38.1 | 23.6 | 28.9 | – | – | –
O=c1c2c(nc3n1CCCCCC3)CCCC2 | 44.6 | 27.1 | 58.5 | – | – | –
CCc1c(C)nc2cccc(C)n2c1=O | 9.6 | 10.2 | 25.6 | 2.1 | – | 71.8
CC1CCCc2nc3c(c(=O)n21)CCC3 (configuration not stated) | 13.8 | 11.7 | 18.2 | – | – | –
Cc1ccn2c(=O)c3c(nc2c1)CCCC3 | 21.9 | 20.4 | 37.7 | – | – | –
Cc1ccc2nc3n(c(=O)c2c1)CCCCC3 | 44.7 | 25.3 | 16 | – | – | –
O=c1c2c(nc3n1CCCC3)CCCC2 | 33.3 | 22 | 44.5 | – | – | –
O=C(O)c1ccc2c(=O)n3c(nc2c1)CCCC3 | > 100 | > 100 | > 100 | – | – | –
O=c1nc2n(c3c1CCCC3)CCCCC2 | 55.1 | > 32 | > 32 | – | – | –
COC(=O)c1ccc2nc3n(c(=O)c2c1)CCCC3 | 12.3 | 16.8 | > 32 | – | – | –
Cc1cccc2nc3c(c(=O)n12)CCCC3 | 6.1 | 9.7 | 10 | – | – | –

SMILES | ED50 [1] [µmol/kg] | ED50 [2] [µmol/kg] | ED50 [3] [µmol/kg] | Relative potency [4] | IC50 [5] [uM l-1] | IC50 [5, 6] [µM]
O=c1c2ccccc2nc2n1CCCCCC2 | > 100 | 61.8 | 61.8 | – | – | –
O=c1c2ccccc2nc2n1CCCC2 | 15.2 | 11.1 | 31.1 | – | – | –
O=C(O)c1ccc2c(=O)n3c(nc2c1)CCCCC3 | > 100 | > 100 | > 100 | – | – | –
O=C(O)c1ccc2nc3n(c(=O)c2c1)CCC3 | > 100 | 215 | > 100 | – | – | –
CCc1c(C)nc2cc(C)ccn2c1=O | 29.7 | 20.9 | 36.7 | – | – | –
Cc1cccn2c(=O)c3c(nc12)CCC3 | 11.2 | 10.2 | 21.6 | 1.54 | – | 97.7
O=C(O)c1ccc2nc3n(c(=O)c2c1)CCCCC3 | > 100 | > 100 | > 100 | – | – | –
CC1CCn2c(nc3c(c2=O)CCCC3)C1 (configuration not stated) | 39.3 | 25.7 | 29.9 | – | – | –
Cc1ccc2nc3c(c(=O)n2c1)CCC3 | 14.4 | 29.2 | 29.1 | – | – | –
CC1CCn2c1nc1ccccc1c2=O (configuration not stated) | 29.4 | 27.3 | 45.8 | – | – | –
CC1CCCc2nc3ccccc3c(=O)n21 (configuration not stated) | 30.2 | 27 | > 100 | – | – | –
CC1CCCn2c1nc1c(c2=O)CCC1 (configuration not stated) | 7.7 | 11.5 | 12.8 | – | – | –
S=c1c2c(nc3n1CCCCC3)CCC2 | > 320 | > 320 | > 320 | – | – | –
O=c1c2c(nc3n1CCC3)CCC2 | 82.5 | 46.1 | > 100 | – | – | –
Cl.O=c1c2c(nc3ccccn13)CCC2 | 17.6 | 10.5 | 32.4 | 0.17 | 879 | –
COC(=O)c1ccc2nc3n(c(=O)c2c1)CCC3 | 11.7 | 27 | 44.1 | – | – | –
CC1CCCn2c1nc1c(c2=O)CCCC1 (configuration not stated) | 36.2 | 19.8 | 47.1 | – | – | –
O=c1c2c(nc3n1CCCCC3)CCCCC2 | 30.8 | 33.8 | 7.2 | – | – | –
O=c1c2c(nc3n1CCCC3)CCCCC2 | 12.7 | 15.2 | 11.8 | – | – | –
CCOC(=O)c1ccc2c(=O)n3c(nc2c1)CCCC3 | > 32 | 15.1 | > 32 | – | – | –
